Values quoted from earlier work as cited in patent US20120220783A1, “SALTS OF SUNITINIB” (RANBAXY LABORATORIES LIMITED, priority 2009, published 2012).

Conditions: crystalline form, statement of WO 2009/104021

For `CCN(CC)CCNC(=O)c1c(C)[nH]c(/C=C2\C(=O)Nc3ccc(F)cc32)c1C.O=C(O)C[C@H](O)C(=O)O` [Form II of sunitinib L-malate, butanedioic acid, hydroxy-, (2S)-, compound with N-[2-(diethylamino)ethyl]-5-[(Z)-(5-fluoro-1,2-dihydro-2-oxo-3H-indol-3-ylidine)methyl]-2,4-dimethyl-1H-pyrrole-3-carboxamide (1:1)], the “thermodynamic stability / form conversion” value (appears to readily convert to Form I) is listed as “thermodynamically unstable” and the hygroscopicity is listed as “hygroscopic”.
